In ChEMBL document CHEMBL4507291 (2021):

Legend:
[1] = target: T1, Serine/threonine-protein kinase TAO2 (Homo sapiens) (UniProt Q9UL54); assay: TAOK2 (TAO1) Kinase screen; settings: Compound concentration 1.0 uM
T1 sequence (whole entry): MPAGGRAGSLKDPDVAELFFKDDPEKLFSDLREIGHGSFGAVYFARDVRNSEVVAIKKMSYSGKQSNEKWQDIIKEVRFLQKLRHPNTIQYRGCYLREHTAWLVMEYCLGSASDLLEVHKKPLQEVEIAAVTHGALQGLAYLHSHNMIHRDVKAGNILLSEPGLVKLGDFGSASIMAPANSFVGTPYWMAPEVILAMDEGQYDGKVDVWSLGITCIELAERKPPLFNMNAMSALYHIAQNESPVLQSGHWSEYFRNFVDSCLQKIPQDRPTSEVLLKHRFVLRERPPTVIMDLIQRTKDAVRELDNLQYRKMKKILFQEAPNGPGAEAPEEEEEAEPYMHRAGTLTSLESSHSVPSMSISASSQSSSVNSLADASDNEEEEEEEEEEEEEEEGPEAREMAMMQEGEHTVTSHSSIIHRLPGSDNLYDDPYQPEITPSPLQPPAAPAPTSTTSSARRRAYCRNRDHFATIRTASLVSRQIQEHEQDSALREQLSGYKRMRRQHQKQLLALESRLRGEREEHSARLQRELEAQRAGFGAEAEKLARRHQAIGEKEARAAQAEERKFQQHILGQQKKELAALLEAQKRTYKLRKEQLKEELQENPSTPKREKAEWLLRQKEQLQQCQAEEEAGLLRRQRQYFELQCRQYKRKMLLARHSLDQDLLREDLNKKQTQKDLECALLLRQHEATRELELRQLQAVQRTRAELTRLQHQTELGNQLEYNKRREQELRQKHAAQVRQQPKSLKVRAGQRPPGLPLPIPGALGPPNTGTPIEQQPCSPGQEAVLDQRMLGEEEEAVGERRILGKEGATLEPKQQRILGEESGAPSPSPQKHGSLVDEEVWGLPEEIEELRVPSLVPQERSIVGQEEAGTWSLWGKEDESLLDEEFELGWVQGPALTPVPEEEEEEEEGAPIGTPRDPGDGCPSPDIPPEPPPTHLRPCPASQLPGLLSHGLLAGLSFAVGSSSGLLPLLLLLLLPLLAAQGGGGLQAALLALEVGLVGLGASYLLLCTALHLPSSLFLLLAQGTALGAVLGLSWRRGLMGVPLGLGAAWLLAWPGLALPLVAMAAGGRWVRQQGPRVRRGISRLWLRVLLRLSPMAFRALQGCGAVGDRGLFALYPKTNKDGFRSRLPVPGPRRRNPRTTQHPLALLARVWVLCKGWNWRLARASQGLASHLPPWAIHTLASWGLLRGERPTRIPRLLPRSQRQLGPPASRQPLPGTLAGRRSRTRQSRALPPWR

[2] = target: T2, Mitogen-activated protein kinase kinase kinase kinase 2 (Homo sapiens) (UniProt Q12851); assay: MAP4K2 (GCK) Kinase screen; settings: Compound concentration 1.0 uM
T2 sequence (whole entry): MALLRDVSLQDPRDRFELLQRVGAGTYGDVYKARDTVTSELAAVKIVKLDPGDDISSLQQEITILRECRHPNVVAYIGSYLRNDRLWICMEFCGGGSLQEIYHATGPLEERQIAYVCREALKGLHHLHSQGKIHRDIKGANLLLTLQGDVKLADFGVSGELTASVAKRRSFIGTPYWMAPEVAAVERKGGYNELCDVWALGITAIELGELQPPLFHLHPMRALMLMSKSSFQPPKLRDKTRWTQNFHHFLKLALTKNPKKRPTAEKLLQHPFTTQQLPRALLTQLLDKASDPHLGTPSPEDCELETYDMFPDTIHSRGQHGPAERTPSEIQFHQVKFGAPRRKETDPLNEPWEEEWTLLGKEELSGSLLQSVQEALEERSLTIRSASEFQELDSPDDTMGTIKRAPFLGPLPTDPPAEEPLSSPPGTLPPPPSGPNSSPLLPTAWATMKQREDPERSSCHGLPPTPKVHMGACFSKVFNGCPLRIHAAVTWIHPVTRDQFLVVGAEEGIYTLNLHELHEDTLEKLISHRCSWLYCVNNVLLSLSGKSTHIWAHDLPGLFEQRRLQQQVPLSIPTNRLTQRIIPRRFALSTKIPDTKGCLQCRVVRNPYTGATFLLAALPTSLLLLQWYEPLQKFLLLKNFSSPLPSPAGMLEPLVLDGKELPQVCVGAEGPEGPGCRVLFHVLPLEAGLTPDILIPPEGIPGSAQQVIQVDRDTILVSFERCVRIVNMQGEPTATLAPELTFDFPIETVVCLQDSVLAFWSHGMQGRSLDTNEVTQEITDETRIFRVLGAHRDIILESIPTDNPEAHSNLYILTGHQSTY

[3] = target: Gamma-aminobutyric acid type B receptor subunit 1 (Homo sapiens) (UniProt Q9UBS5); settings: Rattus norvegicus; Compound concentration 10.0 uM
[4] = target: Beta-2 adrenergic receptor (Homo sapiens) (UniProt P07550); settings: Compound concentration 10.0 uM
[5] = target: Serine/threonine-protein kinase MARK2 (Homo sapiens) (UniProt Q7KZI7); assay: MARK2 Kinase screen; settings: Compound concentration 1.0 uM

Measured: inhibition

Sequence of Serine/threonine-protein kinase MARK2 (Homo sapiens) (Q7KZI7 whole entry): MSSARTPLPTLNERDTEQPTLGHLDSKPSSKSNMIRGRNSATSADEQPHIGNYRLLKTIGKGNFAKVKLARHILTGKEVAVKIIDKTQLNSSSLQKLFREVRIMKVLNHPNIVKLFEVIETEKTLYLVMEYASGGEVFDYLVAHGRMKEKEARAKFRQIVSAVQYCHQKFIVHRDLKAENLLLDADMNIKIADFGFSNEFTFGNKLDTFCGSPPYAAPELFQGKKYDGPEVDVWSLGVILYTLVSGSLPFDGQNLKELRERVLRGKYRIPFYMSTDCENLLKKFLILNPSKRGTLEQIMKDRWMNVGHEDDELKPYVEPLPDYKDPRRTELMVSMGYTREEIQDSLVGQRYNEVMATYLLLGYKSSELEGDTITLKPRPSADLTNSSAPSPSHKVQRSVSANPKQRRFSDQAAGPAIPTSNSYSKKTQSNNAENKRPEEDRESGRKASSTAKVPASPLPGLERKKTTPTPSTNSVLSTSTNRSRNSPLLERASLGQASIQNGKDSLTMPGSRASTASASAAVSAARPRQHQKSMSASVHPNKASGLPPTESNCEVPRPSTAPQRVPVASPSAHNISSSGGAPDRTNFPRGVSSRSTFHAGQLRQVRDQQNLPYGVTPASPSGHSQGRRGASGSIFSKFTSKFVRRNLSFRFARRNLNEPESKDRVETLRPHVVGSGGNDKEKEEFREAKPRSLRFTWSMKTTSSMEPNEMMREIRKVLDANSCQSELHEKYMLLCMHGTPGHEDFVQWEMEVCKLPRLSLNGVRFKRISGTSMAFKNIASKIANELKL
Sequence of Beta-2 adrenergic receptor (Homo sapiens) (P07550 whole entry, looked up): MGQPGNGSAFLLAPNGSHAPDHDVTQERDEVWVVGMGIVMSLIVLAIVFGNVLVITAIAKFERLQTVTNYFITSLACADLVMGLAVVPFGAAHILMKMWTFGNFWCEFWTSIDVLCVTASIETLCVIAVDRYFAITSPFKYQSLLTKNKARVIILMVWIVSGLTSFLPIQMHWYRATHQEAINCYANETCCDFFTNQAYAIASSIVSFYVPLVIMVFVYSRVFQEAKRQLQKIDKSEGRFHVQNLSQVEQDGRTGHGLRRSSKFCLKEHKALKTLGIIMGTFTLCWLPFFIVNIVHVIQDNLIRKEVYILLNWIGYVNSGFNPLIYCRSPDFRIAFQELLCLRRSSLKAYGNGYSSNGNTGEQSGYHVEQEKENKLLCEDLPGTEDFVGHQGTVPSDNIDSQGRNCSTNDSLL
Sequence of Gamma-aminobutyric acid type B receptor subunit 1 (Homo sapiens) (Q9UBS5 whole entry): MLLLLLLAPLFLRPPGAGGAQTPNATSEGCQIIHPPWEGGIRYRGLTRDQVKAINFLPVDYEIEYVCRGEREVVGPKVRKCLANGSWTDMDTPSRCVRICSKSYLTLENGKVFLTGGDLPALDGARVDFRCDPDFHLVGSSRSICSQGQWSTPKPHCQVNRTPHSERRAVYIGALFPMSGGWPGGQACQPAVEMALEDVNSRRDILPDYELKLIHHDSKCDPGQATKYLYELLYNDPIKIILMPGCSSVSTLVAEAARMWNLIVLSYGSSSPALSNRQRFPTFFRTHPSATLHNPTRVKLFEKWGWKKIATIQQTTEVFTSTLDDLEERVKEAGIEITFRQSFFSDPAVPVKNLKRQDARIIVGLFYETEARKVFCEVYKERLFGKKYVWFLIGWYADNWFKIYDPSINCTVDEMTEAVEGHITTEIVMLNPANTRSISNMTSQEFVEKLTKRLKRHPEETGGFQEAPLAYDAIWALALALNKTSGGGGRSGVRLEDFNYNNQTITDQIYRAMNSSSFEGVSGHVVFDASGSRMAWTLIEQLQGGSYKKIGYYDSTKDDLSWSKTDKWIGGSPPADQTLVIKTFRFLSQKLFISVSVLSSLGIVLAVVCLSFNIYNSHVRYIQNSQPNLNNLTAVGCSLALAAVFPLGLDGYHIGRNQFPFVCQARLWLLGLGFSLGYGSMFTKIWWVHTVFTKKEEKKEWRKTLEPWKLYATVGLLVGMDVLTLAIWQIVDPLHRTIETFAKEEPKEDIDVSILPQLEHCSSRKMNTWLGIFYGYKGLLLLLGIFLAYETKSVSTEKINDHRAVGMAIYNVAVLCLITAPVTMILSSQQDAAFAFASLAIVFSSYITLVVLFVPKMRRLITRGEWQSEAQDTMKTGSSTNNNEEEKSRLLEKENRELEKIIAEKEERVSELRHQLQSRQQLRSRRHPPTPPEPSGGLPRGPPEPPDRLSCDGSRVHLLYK

C[C@@H]1CN(c2cc(-c3n[nH]c4ccc(OC5(C)CC5)cc34)ncn2)C[C@H](C)O1 [MLi-2]
inactive: [1] -2.67% | [2] 30.9% | [3] -3% | [4] 16% | [5] 7.83%
